This is an account of results in ChEMBL document CHEMBL6153155, “Novel Cyclohexyl Amido Acid Antagonists of Lysophosphatidic Acid Type 1 Receptor for the Treatment of Pulmonary Fibrosis” (ACS Med Chem Lett, 2025).

The target of series [1] is ATP-binding cassette sub-family C member 2 (Homo sapiens, UniProt Q92887). Put plainly: Inhibition of MRP2 (unknown origin) in presence of ATP by membrane vesicular transport assay. The format is cell membranes, Membrane vesicle.
In series [2] the target is T1, Solute carrier organic anion transporter family member 1B1 (Homo sapiens, UniProt Q9Y6L6).
T1 sequence (Q9Y6L6 whole entry): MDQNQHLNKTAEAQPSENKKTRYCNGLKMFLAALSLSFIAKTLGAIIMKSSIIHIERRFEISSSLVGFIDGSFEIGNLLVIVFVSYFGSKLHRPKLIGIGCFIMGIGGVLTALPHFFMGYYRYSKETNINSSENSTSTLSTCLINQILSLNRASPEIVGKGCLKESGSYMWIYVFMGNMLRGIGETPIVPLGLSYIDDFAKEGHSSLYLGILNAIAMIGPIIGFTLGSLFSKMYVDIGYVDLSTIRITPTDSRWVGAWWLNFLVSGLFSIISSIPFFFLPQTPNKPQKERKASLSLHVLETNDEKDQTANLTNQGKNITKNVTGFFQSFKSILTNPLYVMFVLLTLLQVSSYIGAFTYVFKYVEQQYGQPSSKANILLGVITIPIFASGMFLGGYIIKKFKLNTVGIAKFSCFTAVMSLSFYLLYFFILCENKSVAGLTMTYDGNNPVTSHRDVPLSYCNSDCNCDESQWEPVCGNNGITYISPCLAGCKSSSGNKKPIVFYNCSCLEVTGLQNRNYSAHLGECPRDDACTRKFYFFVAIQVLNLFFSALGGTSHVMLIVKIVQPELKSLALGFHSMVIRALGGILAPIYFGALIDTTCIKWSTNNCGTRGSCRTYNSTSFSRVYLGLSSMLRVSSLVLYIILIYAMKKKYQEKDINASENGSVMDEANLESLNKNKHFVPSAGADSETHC
Nature of the series: Inhibition of human OATP1B1 in HEK293 cells. It counts as cell-based.

The nature of series [3]: Metabolic stability in human liver microsomes assessed as intrinsic clearance measured per mg of protein at 0.5 uM measured upto 45 mins in presence of NADPH regenerating system by HPLC-MS/MS analysis. It counts as ADME, Microsome. The note with it: read-out: CLH.
The nature of series [4]: Unbound AUClast in female C57BL/6J mouse lung at 30 mg/kg, po measured after 24 hrs by UPLC-MS/MS analysis. It counts as ADME, organism-based. The note with it: in vivo.
Series [5] concerns the target Phosphatidylcholine translocator ABCB4 (Homo sapiens, UniProt P21439). Put plainly: Inhibition of MDR3 in human hepatocytes in the presence of TCA incubated for 3 hrs by LC-MS/MS. The format is cell-based, Hepatocyte.
The nature of series [6]: Toxicity in cynomolgus monkey assessed as drug tolerance at 12.5 to 100 mg/kg/day, po bid measured after 4 days. The format is organism-based, Macaca fascicularis. The conditions noted are these: in vivo, 96 h, dose 12.5-100 mg/kg/day, time 4 day.
Series [7] can be described thus: Total AUClast in female C57BL/6J mouse plasma at 30 mg/kg, po measured after 24 hrs by UPLC-MS/MS analysis. The conditions noted are these: in vivo. It counts as ADME, organism-based.
In another series the test system is Mus musculus. Nature of the series: Inhibition of LPA-stimulated histamine release in male CD1 mouse plasma assessed as effective dose administered as po dose pretreated for 30 mins followed by LPA addition measured after 2 mins by enzyme immunoassay. The format is functional. The conditions noted are these: 32 min.
Series [8] in a line: Toxicity in cynomolgus monkey assessed as piloerection at 210 mg/kg/day, po bid measured after 4 days. The format is organism-based, Macaca fascicularis. The conditions noted are these: in vivo, 96 h, time 4 day.
A short description of series [9]: Toxicity in cynomolgus monkey assessed as abnormal vocalization at 210 mg/kg/day, po bid measured after 4 days. It counts as organism-based, Macaca fascicularis. The note with it: in vivo, 96 h, time 4 day.
Series [10] is described as follows: Toxicity in cynomolgus monkey assessed as fasciculation at 210 mg/kg/day, po bid measured after 4 days. The format is organism-based, Macaca fascicularis. The conditions noted are these: in vivo, 96 h, time 4 day.
For series [11], the target named is ATP-binding cassette sub-family C member 3 (Homo sapiens, UniProt O15438). Nature of the series: Inhibition of MRP3 (unknown origin) in presence of ATP by membrane vesicular transport assay. It counts as cell membranes, Membrane vesicle.
A further series addresses BSEP (Homo sapiens, UniProt O95342). Nature of the series: Inhibition of BSEP in cryopreserved sandwich-cultured human hepatocytes by measuring reduction in TCA biliary clearance using taurocholic acid as substrate at 50 uM relative to control. It counts as cell-based, Hepatocyte. The note with it: cryopreserved sandwich-cultured hepatocytes, probe taurocholic acid.
A further series concerns the target Bile salt export pump (Homo sapiens, UniProt O95342). Nature of the series: Inhibition of BSEP in cryopreserved sandwich-cultured human hepatocytes by measuring reduction in TCA biliary clearance using taurocholic acid as substrate. The format is cell-based, Hepatocyte.
Series [12] can be described thus: Total AUClast in female C57BL/6J mouse lung at 30 mg/kg, po measured after 24 hrs by UPLC-MS/MS analysis. The format is ADME, organism-based. The note with it: in vivo.
A short description of series [13]: Clearance in female C57BL/6J mouse at 2 mg/kg, iv measured after 24 hrs by UPLC-MS/MS analysis. It counts as ADME, organism-based. The note with it: in vivo.
Series [14] in a line: Metabolic stability in female C57BL/6J mouse liver microsomes assessed as intrinsic clearance measured per mg of protein at 0.5 uM measured upto 45 mins in presence of NADPH regenerating system by HPLC-MS/MS analysis. It counts as ADME, Microsome. The conditions noted are these: read-out: CLH.
A short description of series [15]: Lipophilicity, logD of compound at pH 7.4 by chromatographic hydrophobicity index method. The format is physicochemical. The conditions noted are these: buffer.
A short description of series [16]: Unbound Cmax in female C57BL/6J mouse lung at 30 mg/kg, po measured after 24 hrs by UPLC-MS/MS analysis. It counts as ADME, organism-based. The conditions noted are these: in vivo.
Series [17] is described as follows: Oral bioavailability in female C57BL/6J mouse at 2 mg/kg, iv measured after 24 hrs by UPLC-MS/MS analysis. The format is ADME, organism-based. The conditions noted are these: in vivo.
Series [18] can be described thus: Toxicity in cynomolgus monkey assessed as decreased activity at 210 mg/kg/day, po bid measured after 4 days. The format is organism-based, Macaca fascicularis. The conditions noted are these: in vivo, 96 h, time 4 day.
The nature of series [19]: Total Cmax in female C57BL/6J mouse plasma at 30 mg/kg, po measured after 24 hrs by UPLC-MS/MS analysis. It counts as ADME, organism-based.

Chain of ATP-binding cassette sub-family C member 2 (Q92887 whole entry): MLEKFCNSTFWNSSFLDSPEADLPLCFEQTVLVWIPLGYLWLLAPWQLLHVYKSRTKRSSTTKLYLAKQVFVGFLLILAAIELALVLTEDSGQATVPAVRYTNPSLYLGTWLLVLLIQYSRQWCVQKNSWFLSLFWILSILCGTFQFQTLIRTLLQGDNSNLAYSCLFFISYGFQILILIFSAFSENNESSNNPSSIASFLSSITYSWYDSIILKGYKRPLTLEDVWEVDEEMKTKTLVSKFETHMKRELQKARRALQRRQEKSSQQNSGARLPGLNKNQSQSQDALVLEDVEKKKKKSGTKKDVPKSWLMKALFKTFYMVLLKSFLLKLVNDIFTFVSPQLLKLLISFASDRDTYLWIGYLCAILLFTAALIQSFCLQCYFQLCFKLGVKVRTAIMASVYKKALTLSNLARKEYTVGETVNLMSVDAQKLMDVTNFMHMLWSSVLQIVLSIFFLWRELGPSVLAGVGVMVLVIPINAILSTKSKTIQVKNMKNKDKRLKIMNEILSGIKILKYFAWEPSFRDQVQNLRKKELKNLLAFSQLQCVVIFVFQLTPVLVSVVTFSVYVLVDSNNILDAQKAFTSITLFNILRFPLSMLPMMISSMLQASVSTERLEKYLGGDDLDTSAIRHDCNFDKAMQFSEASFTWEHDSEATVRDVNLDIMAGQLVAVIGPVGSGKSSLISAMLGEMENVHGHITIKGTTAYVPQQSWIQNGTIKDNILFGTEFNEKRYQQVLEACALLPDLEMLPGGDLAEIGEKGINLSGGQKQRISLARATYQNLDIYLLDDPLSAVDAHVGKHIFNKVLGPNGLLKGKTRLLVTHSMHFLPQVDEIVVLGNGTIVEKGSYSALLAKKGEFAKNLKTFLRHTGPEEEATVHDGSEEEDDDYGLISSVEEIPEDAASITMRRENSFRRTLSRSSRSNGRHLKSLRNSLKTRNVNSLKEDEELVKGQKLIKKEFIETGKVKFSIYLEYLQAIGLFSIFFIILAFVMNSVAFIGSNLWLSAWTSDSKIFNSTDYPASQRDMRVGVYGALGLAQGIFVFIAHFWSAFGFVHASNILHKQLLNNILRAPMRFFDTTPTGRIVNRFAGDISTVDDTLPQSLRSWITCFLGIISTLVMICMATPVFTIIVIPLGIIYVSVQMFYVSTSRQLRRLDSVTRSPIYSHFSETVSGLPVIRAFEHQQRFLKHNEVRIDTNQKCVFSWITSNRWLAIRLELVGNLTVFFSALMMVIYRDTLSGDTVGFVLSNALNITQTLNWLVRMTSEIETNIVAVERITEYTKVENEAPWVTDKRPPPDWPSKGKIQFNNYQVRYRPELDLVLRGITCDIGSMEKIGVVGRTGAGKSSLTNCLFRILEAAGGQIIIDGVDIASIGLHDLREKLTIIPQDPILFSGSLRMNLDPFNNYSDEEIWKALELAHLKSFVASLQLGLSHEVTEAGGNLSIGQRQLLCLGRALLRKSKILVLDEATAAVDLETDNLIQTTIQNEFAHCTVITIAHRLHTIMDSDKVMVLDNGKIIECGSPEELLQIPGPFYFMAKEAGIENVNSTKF
Chain of BSEP (O95342 whole entry): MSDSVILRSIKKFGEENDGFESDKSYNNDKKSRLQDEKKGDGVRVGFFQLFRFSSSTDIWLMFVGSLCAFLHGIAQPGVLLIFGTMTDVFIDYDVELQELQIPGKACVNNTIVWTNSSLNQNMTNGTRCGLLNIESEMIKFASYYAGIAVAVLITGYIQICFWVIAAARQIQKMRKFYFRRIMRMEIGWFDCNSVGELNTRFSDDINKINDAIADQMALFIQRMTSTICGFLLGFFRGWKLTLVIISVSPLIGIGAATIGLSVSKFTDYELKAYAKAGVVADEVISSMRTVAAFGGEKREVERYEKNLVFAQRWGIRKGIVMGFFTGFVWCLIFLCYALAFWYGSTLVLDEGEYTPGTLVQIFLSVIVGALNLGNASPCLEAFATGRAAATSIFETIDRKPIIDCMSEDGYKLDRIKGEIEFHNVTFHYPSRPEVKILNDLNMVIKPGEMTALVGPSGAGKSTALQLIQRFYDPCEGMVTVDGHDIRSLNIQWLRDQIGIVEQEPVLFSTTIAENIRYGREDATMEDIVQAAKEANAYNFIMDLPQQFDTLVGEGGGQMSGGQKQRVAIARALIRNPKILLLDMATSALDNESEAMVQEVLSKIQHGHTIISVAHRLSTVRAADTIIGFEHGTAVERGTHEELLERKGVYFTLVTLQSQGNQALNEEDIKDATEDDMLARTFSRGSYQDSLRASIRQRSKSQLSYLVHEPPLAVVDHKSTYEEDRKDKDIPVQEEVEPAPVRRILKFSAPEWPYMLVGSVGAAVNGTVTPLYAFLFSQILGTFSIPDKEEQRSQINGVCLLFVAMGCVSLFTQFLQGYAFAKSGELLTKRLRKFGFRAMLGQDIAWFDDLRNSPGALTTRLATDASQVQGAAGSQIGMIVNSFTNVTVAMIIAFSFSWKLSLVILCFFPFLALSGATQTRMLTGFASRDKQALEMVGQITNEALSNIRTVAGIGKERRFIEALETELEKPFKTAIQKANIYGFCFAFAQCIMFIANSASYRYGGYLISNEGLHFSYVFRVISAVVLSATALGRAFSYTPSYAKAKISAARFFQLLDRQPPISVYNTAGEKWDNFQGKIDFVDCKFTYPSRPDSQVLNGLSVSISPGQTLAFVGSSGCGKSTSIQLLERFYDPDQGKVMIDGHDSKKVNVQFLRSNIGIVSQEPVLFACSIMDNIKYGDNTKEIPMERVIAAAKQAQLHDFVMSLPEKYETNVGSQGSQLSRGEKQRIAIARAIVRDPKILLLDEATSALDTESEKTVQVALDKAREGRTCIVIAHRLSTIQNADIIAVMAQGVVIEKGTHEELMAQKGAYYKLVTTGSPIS
Chain of Bile salt export pump (O95342 whole entry): as above
Chain of ATP-binding cassette sub-family C member 3 (O15438 whole entry): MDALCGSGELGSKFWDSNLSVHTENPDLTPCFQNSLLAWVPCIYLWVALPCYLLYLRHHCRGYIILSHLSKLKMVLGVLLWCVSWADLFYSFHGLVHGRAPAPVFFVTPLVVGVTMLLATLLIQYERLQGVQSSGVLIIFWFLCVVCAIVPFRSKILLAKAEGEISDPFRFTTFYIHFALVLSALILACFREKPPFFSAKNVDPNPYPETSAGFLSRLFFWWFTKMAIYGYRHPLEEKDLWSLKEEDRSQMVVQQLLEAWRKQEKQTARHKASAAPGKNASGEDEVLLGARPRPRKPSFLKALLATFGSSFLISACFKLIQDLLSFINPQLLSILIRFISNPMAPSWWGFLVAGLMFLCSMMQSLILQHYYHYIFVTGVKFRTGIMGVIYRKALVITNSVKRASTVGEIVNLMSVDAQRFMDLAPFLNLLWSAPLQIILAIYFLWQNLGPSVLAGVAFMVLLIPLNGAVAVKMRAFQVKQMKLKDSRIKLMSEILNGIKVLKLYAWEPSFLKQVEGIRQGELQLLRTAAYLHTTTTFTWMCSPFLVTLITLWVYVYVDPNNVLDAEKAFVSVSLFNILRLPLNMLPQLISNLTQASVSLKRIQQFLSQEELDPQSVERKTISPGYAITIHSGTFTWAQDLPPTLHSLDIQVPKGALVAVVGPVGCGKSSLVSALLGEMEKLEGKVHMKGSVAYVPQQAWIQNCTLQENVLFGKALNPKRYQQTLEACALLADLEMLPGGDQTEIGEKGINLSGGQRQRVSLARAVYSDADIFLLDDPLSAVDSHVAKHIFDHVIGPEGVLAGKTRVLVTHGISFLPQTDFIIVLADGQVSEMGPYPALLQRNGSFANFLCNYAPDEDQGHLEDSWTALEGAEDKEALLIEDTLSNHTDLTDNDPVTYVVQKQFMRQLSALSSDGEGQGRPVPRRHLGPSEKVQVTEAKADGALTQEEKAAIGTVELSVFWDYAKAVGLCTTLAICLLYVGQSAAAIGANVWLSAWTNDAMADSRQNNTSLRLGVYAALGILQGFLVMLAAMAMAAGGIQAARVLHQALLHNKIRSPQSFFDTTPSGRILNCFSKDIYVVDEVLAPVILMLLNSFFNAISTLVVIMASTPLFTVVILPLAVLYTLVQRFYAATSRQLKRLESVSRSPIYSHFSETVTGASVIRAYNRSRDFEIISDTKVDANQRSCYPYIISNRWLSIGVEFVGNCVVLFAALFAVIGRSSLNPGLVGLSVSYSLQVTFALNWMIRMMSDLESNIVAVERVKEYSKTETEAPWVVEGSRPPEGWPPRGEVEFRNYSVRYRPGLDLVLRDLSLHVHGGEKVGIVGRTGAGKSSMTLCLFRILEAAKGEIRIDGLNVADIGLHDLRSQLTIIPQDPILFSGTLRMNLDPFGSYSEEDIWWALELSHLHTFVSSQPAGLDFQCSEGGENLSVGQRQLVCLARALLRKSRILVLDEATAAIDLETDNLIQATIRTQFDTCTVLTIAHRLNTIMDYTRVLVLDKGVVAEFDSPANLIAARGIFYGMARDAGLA

In the case of `Cc1nc(-c2onc(C)c2NC(=O)O[C@H](C)c2ccccc2Cl)ccc1NC(=O)[C@H]1CCCC[C@@H]1C(=O)O`, the IC50 in series [1] is over 200 µM; in series [2], 5.01 µM; in series [5] it was 251 µM; in series [11], 25.1 µM; at Bile salt export pump, 39.8 µM. Also, the microsomal CLint at 0.5 µM in series [3] was determined as 7 µL/min/mg; in series [14] it was 4 µL/min/mg. Further, the fAUClast in series [4] came to 4624 h/ng/mL. Also, the Activity result in [6] is reported as “Non-toxic”; in series [8], “Toxic”; in [9], “Toxic”; in series [10], “Toxic”; in series [18] it was “Toxic”. In addition, the AUClast in [7] amounted to 247000 h/ng/mL; in series [12] it was 123000 h/ng/mL. In the series with Mus musculus, the ED50 is 0.04 mg/kg. Testing at 50 µM against BSEP gave an inhibition of 50%. The clearance in [13] came out at 1.73 mL/min/kg. Moreover, in series [15], the chromatographic logD is 1.76. Further, the fCmax in [16] is 1553 ng/mL. The bioavailability in [17] came out at 100%. In series [19], this compound came in with a Cmax of 99.4 µg/mL.
